The numbers were not newly measured in patent US7879371B2 (priority 2002, dated 2011), which cites them from elsewhere.

Read-outs that look alike come from different tables or passages of the source.

In data set [1] the test system is A. tumefaciens nopaline type strains T37 and C58.
Data set [2] has as its system A. tumefaciens str. A348 (pSM358) virE::lacZ.
Data set [3] has as its system A. tumefaciens vir genes, strain A348 (pSM243cd). As to conditions: for vir gene induction efficiency versus corresponding phenolic acids: strain A348 (pSM243cd), only above 100 μM.
The mark [4] stands for this setting: cultures of strains C58F and T37.

Take `COc1cc(C=CC(=O)O)cc(OC)c1O` (stereo in doubt) [sinapinic acid]: the “growth of A. tumefaciens strains” value in data set [1] (setting [4]) was “inhibited growth”.
`COc1cc(C(C)=O)cc(OC)c1O[C@H]1O[C@@H](C)[C@@H](O)[C@@H](O)[C@@H]1O` [Acetosyringonyl beta-L-fucopyranoside]: in data set [2] (13 synthetic beta-glycosides compared), the vir-inducing activity entry was “most active monoglycoside tested”. For the same compound, the toxic effects result in data set [2] (even at high concentrations) is recorded as “devoid of toxic effects”.
On to `COc1cc(C(C)=O)cc(OC)c1O` [acetosyringone], for which, in data set [1], the “growth of A. tumefaciens strains” value is reported as “inhibited the growth”.
As for `COc1cc(C=O)cc(OC)c1O[C@@H]1O[C@H](CO)[C@@H](O[C@H]2O[C@H](CO)[C@@H](O)[C@H](O)[C@H]2O)[C@H](O)[C@H]1O` [beta-maltoside of syringaldehyde], the “vir-inducing activity versus free phenol” value in data set [2] (at high concentrations) is “higher activity than the free phenol”.
Turning to `CCNC(=O)/C=C/c1ccc(O)c(OC)c1` [ethylferulamide], the “vir gene induction efficiency versus corresponding phenolic acids” value in data set [3] was “more efficient than the corresponding phenolic acids”.
As for `CCNC(=O)/C=C/c1cc(OC)c(O)c(OC)c1` [ethylsinapamide], in data set [3], the “vir gene induction efficiency versus corresponding phenolic acids” value was “more efficient than the corresponding phenolic acids”.
For the compound `CCNC(=O)c1cc(OC)c(O)c(OC)c1` [ethylsyringamide], in data set [3] (concentrations above 1 mM), the “vir gene induction activity versus acetosyringone” value was “higher activity than acetosyringone”.
With `COc1cc(C=O)cc(OC)c1O` [syringaldehyde], in data set [1] (setting [4]), the “growth of A. tumefaciens strains” value was “inhibited growth”.
